Test results published in patent US20220296522A1, “BRYOID COMPOSITIONS, METHODS OF MAKING AND USE THEREOF” (Aphios Corporation, priority 2021, published 2022).
“Also recorded” adds a separate entry of the source.

Assays:
alpha-secretase = alpha-secretase activity in SHSY-5Y neuroblastoma cells (FIG. 10); format: cell-based; settings: 10−9 M, versus Bryostatin-1
Description: Purified Bryoids at 10−^9 M are shown to increase alpha-secretase activity in SHSY-5Y neuroblastoma cells in FIG. 10.

[1] = system: TS65DN transgenic mouse model of Down syndrome; experiment: Morris water maze in TS65DN mouse model of Down syndrome, intranasal; format: in vivo; settings: PET formulation
Description: In this model, wild type mice improved over the 4 trials shown as a reduction in latency within the trial.
TS65DN mouse model of Down syndrome were purchased from MMRRC/Jackson Labs at 20-24 weeks of age and maintained in the LSUHSC-S vivarium. Segmentally trisomic Ts65Dn mice provide a postnatal model for Down syndrome.

[2] = Biodistribution of radio-labeled Bryostatin-1 by different administration routes; format: in vivo, mouse
Description: It is worth mentioning that oil formulations were used for […] and intraperitoneal studies. Aqueous formulations were used for intravenous administration and PET formulation for intranasal administration.

SK-HEP1 liver cells = experiment: Metabolism by SK-HEP1 liver cells; format: in vitro ADME; settings: within 24 h
[3] = system: B6C3-Tg (APPswe, PSEN1 dE9) 85Dbo/J mice; experiment: Morris water maze in APP/PS1 Alzheimer's disease mice; format: in vivo, mouse
Experimental: Mouse strain B6C3-Tg carrying mutant Swedish Amyloid precursor protein (sweAPP) and PS I (presenilin-1) genes associated with early onset Alzheimer's disease were subjected to water maze tests at 5-6 months of age.
In vivo studies were conducted using the Morris water maze to evaluate cognitive impairments and restoration in response to drug treatments. These studies used the mouse strain B6C3-Tg (APPswe, PSEN1 dE9) 85Dbo/J mice (MMRRC, Jackson Labs).

[4] = Solubility of Bryostatin-1 in solvents and oils by normal phase HPLC; format: physicochemical; settings: for Concentration: theoretical 2.5 mg/100 mL
Experimental: Based on the hydrophobicity of Bryostatin-1, we developed an oil-based formulation of Bryostatin-1. […] Isopropyl alcohol, Extra Virgin olive oil, sesame oil, and vegetable oil were all used as solvents. Thirty microliters of the stock solution were placed in each of 4 clean, dry HPLC vials. The ethanol was allowed to evaporate, leaving 25 micrograms in the vial. Then, 1.0 mL of the solvent was placed in the vial and vortexed to ensure proper mixing. These samples were then injected on a normal phase HPLC system, with a gradient of 10%-70% isopropyl alcohol in hexane as the mobile phase (specifically developed for this experiment). The concentration of each vial theoretically should be 2.5 mg/100 mL.
The reason for the higher concentrations than the standard (isopropyl alcohol) is due to the baseline. While attempting a baseline subtraction for each oil, there was negative absorbance so the blank IPA sample was subtracted from each sample's baseline. While this incorporates a little more area for integration, the amount of Bryostatin in the oil was quantifiable.

[5] = over 72 h following intranasal administration

## CCC/C=C/C=C/C(=O)O[C@H]1[C@H]2C=C3C[C@H]([C@@H](C)O)OC(=O)C[C@H](O)C[C@@H]4C[C@H](OC(C)=O)C(C)(C)[C@](O)(C[C@@H]5C/C(=C\C(=O)OC)C[C@H](/C=C/C(C)(C)[C@]1(OC(=O)C2)O3)O5)O4 [Bryoid B3, Bryostatin-3]
alpha-secretase
  alpha-secretase activity: improve the production of alpha-secretase over Bryostatin-1

## CCC/C=C/C=C/C(=O)O[C@H]1/C(=C/C(=O)OC)C[C@H]2C[C@H]([C@@H](C)O)OC(=O)C[C@H](O)C[C@@H]3C[C@H](OC(C)=O)C(C)(C)[C@](O)(C[C@@H]4C/C(=C/C(=O)OC)C[C@H](/C=C/C(C)(C)[C@]1(O)O2)O4)O3 [Bryostatin-1]
[1]; 0.01 μg intranasal
  inter-trial water maze performance (latency): did not show this same improvement
[1]; 0.1 μg intranasal, p<0.05 compared to vehicle treated Down's mice
  inter-trial water maze performance (latency): inter-trial interval improvement
[1]; 1 μg intranasal, p<0.001 compared to vehicle treated transgenic Down's mice
  inter-trial water maze performance (latency): significant improvement
[2]; 8 h following intranasal administration, normalized to CPM/g
  tissue distribution of 3H-labeled tracer: most abundant in hippocampus, large intestine and urine
[2]; 12 h following intranasal administration
  tissue distribution of 3H-labeled tracer: most abundant in hippocampus and urine
[2]; 24 h following intranasal administration
  tissue distribution of 3H-labeled tracer: most abundant in hippocampus, urine and feces
[2]; 48 h following intranasal administration
  tissue distribution of 3H-labeled tracer: most abundant in hippocampus and fat tissues
[2]; i.p. dosed group
  accumulation in different tissues: highest tissue accumulations
[2]; i.v. dosed group
  accumulation in different tissues: highest tissue accumulations
[2]; intranasal delivery, by 4 h
  accumulation in hippocampus and lung: relative high levels of Bryostatin-1 accumulation
[2]; oral route (oil formulation)
  accumulation in different tissues: lowest
[2]; [5]
  Hippocampal content: relatively high hippocampal uptake rates were achieved and maintained; also recorded: slow rate of loss over 72 h
  Lung content: a peak at 4 h and rapid excretion by 8 h; also recorded: rapid rate of appearance at 4h followed by rapid loss at 8 h
SK-HEP1 liver cells
  metabolism by liver cells: not significantly metabolized
[3]; 5 micrograms/mouse on alternative days orally in oil formulation, APP/PS1 mice 5-6 months of age, versus control animals
  protection against memory loss in water maze: significant protection against Alzheimer's disease mediated memory loss
[3]; i.p. treated mice
  responses in water maze: did not find that i.p. treated mice showed as good responses
[4]; Extra Virgin Olive Oil
  Concentration: 2.9945 mg/100 mL
[4]; Extra Virgin olive with mixed natural tocopherol antioxidants, lecithin and medium chain triglyceride emulsifiers
  Concentration: 2.4431 mg/100 mL
[4]; Isopropyl Alcohol (standard)
  Concentration: 2.6035 mg/100 mL
[4]; Vegetable Oil
  Concentration: 2.5475 mg/100 mL
[4]; variety of oils
  solubility in oils: soluble in a variety of different types of oil; also recorded: soluble in a variety of oils, with the best results in Extra Virgin Olive Oil, Vegetable Oil, and Extra Virgin Olive Oil with excipients

## bryostatin-3 26-ketone [Bryoid B16]
alpha-secretase
  alpha-secretase activity: improve the production of alpha-secretase over Bryostatin-1
